For assay [1], the target named is T1, TrkB (CellSensor TrkB-NFAT-bla CHO-K1 Cell) (Homo sapiens, UniProt Q16620).
T1 construct: host or cells: CHO-K1 (CellSensor TrkB-NFAT-bla CHO-K1)
Description: pERK1/2 AlphaLISA assay (phosphorylation of ERK) for TrkB agonist activity. Type of assay: cell-based. The note with it: class = peptide concentration giving 50% or more activity; BDNF maximum signal = 100%, no stimulation = 0%; 15 minutes of stimulation. The method, boiled down: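 TrkB-NFAT-bla CHO-K1 cells were starved 4 h in 0.1% BSA medium and then stimulated 15 min with peptide or BDNF; p-ERK1/2 (Thr202/Tyr204) in the lysate was read by AlphaLISA SureFire. Activity % was scaled to the BDNF maximum (100%) and no stimulation (0%); A = ≥50% at 1 nM, B = ≥50% at 10 nM; curves were 8 points, 4-fold dilutions from 100 nM.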

Assay [2] deals with T1, TrkB (CellSensor TrkB-NFAT-bla CHO-K1 Cell). The experiment in a line: NFAT transcriptional reporter assay for TrkB agonist activity. The format is cell-based. The note with it: class = peptide concentration giving 50% or more activity; BDNF maximum signal = 100%, no stimulation = 0%; 5 hours culture. In a few lines:
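CHO-K1 TrkB-NFAT-bla cells, 12,500 per well, treated overnight-seeded with peptide or BDNF for 5 h, then CCF4-AM substrate 2 h in the dark; 460/535 nm emission ratio. Activity scaled to maximal BDNF signal (100%) and unstimulated (0%); grades A/B/C mean ≥50% activity at 1, 10 or 100 nM.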

For assay [3], the target named is TrkB (Homo sapiens, UniProt Q16620). The experiment in a line: PathHunter eXpress TrkB Functional Assay (phosphorylation of TrkB). Type of assay: cell-based. The note with it: maximum signal induced by BDNF = 100%; stimulation for 3 hours. The method, boiled down: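 PathHunter TrkB cells, cultured 48 h, were stimulated 3 h with peptide or BDNF, then detection reagent added for 60 min at room temperature; luminescence read. Activity (%) scaled from unstimulated (0%) to maximal BDNF signal (100%); peptides tested over 0.006104-100 nM, 0.032-100 nM or 0.01-10 nM ranges.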
TrkB, sequence (Q16620 32-822): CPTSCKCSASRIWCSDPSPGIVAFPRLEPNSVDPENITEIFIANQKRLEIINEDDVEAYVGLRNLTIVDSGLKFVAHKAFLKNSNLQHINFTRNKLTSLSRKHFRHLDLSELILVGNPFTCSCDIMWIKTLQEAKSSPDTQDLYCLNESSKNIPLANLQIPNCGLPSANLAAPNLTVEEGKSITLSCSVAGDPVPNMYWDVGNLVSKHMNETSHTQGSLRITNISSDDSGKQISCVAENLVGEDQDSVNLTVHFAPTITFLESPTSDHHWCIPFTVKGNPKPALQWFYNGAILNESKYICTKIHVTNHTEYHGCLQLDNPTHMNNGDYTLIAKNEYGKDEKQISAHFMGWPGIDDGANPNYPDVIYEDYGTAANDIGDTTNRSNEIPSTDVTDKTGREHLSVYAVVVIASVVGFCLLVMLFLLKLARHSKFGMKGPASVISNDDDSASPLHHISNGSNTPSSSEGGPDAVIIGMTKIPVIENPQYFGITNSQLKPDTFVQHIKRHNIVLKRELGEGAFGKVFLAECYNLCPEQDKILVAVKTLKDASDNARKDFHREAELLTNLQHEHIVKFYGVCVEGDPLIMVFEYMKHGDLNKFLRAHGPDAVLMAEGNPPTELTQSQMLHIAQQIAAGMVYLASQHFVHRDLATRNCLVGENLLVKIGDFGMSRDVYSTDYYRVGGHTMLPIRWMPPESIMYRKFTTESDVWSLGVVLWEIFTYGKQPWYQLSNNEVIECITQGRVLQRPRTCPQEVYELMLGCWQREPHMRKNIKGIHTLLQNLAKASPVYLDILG

In assay [4] the target is Recombinant Human TrkB Fc Chimera Protein (R&D Systems) (human) (UniProt Q16620). The experiment in a line: SPR (Biacore T200), TrkB-Fc captured on anti-human IgG (Fc) antibody, peptide complex as analyte, single cycle kinetics.
Recombinant Human TrkB Fc Chimera Protein (R&D Systems) (human), sequence (Q16620 32-430, change not shown): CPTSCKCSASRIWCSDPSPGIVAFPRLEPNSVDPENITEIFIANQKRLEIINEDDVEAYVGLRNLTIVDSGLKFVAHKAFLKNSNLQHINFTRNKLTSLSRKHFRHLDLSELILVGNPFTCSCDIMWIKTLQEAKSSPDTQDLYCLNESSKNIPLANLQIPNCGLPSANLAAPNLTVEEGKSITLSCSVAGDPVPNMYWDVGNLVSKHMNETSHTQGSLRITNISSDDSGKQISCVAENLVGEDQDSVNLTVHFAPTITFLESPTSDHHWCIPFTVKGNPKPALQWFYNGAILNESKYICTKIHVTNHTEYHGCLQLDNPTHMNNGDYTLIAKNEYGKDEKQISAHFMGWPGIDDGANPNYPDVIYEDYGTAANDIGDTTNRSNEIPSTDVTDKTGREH
Assay [5] addresses TrkB of the cells of the PathHunter eXpress TrkB Functional Assay kit (DiscoverX) (UniProt Q16620 32-822, limits assumed). Description: cell-based or functional assay.

*1 amine or outer side, *2 acyl side, *3 side chain or, on linkers, in order; H or OH if unused. Where a SMILES comes first, the peptide text is derived from it. Bridges are numbered along the chain shown (N, C = ends). Roman numbers before positions name the chains, in order. Where no end group is shown, it is not given here. [ ]: non-standard residue; d: D form. X1 = O=C(OCCOCCOCCOCCOCCOCCOCCOCCOCCOCCOCCOCCOC(=O)[*:2])[*:1]; 3Pal = N[C@@H](Cc1cccnc1)C(=O)O

T1 sequence (Q16620 32-822): as the sequence (Q16620 32-822) above
TrkB of the cells of the PathHunter eXpress TrkB Functional Assay kit (DiscoverX), sequence (Q16620 32-822 limits assumed): as the sequence (Q16620 32-822) above

As for `CC(C)[C@@H]1NC(=O)[C@H](Cc2cccnc2)NC(=O)[C@H](CCC(=O)O)NC(=O)[C@H](CO)NC(=O)[C@H](Cc2ccc(O)cc2)NC(=O)[C@H]([C@@H](C)O)NC(=O)[C@@H]2CCCN2C(=O)[C@H](Cc2c[nH]c3ccccc23)NC(=O)[C@H](Cc2cccnc2)NC(=O)[C@H](Cc2ccc(O)cc2)NC(=O)[C@@H]2CCCN2C(=O)[C@H](CO)NC(=O)[C@H](Cc2ccccc2)NC(=O)CSC[C@@H](C(=O)NCC(=O)N[C@@H](CCCCNC(=O)OCCOCCOCCOCCOCCOCCOCCOCCOCCOCCOCCOCCOC(=O)NCCCC[C@H](NC(=O)CNC(=O)[C@@H]2CSCC(=O)N[C@@H](Cc3ccccc3)C(=O)N[C@@H](CO)C(=O)N3CCC[C@H]3C(=O)N[C@@H](Cc3ccc(O)cc3)C(=O)N[C@@H](Cc3cccnc3)C(=O)N[C@@H](Cc3c[nH]c4ccccc34)C(=O)N3CCC[C@H]3C(=O)N[C@@H]([C@@H](C)O)C(=O)N[C@@H](Cc3ccc(O)cc3)C(=O)N[C@@H](CO)C(=O)N[C@@H](CCC(=O)O)C(=O)N[C@@H](Cc3cccnc3)C(=O)N[C@@H](C(C)C)C(=O)N[C@@H](CCC(=O)O)C(=O)N2)C(N)=O)C(N)=O)NC(=O)[C@H](CCC(=O)O)NC1=O` [compound 55] (I: {CH2CO}-FSPY[3Pal]WPTYSE[3Pal]VECGK-NH2 / II: {CH2CO}-FSPY[3Pal]WPTYSE[3Pal]VECGK-NH2; linker I:17-II:17 via X1; thioether I:N-I:15, II:N-II:15), the “pERK (aLISA) Assay Results” value in assay [1] is on record as “A (The peptide with 50% or more activity when 1 nM of the peptide was added was evaluated as A)”. The “NFAT Assay Results” value in assay [2] is listed as “A (The peptide with 50% or more activity when 1 nM of the peptide was added was evaluated as A)”. This molecule also came in with an Emax in assay [3] of 104%.
In the case of `CC(C)[C@@H]1NC(=O)[C@H](Cc2cccnc2)NC(=O)[C@H](CCC(=O)O)NC(=O)[C@H](CO)NC(=O)[C@H](Cc2ccc(O)cc2)NC(=O)[C@H]([C@@H](C)O)NC(=O)[C@@H]2CCCN2C(=O)[C@H](Cc2c[nH]c3ccccc23)NC(=O)[C@H](Cc2cccnc2)NC(=O)[C@H](Cc2ccc(O)cc2)NC(=O)[C@@H]2CCCN2C(=O)[C@H](CCC(=O)O)NC(=O)[C@H](Cc2ccccc2)NC(=O)CSC[C@@H](C(=O)NCC(=O)N[C@@H](CCCCNC(=O)OCCOCCOCCOCCOCCOCCOCCOCCOCCOCCOCCOCCOC(=O)NCCCC[C@H](NC(=O)CNC(=O)[C@@H]2CSCC(=O)N[C@@H](Cc3ccccc3)C(=O)N[C@@H](CCC(=O)O)C(=O)N3CCC[C@H]3C(=O)N[C@@H](Cc3ccc(O)cc3)C(=O)N[C@@H](Cc3cccnc3)C(=O)N[C@@H](Cc3c[nH]c4ccccc34)C(=O)N3CCC[C@H]3C(=O)N[C@@H]([C@@H](C)O)C(=O)N[C@@H](Cc3ccc(O)cc3)C(=O)N[C@@H](CO)C(=O)N[C@@H](CCC(=O)O)C(=O)N[C@@H](Cc3cccnc3)C(=O)N[C@@H](C(C)C)C(=O)N[C@@H](CCC(=O)O)C(=O)N2)C(N)=O)C(N)=O)NC(=O)[C@H](CCC(=O)O)NC1=O` [compound 57] (I: {CH2CO}-FEPY[3Pal]WPTYSE[3Pal]VECGK-NH2 / II: {CH2CO}-FEPY[3Pal]WPTYSE[3Pal]VECGK-NH2; linker I:17-II:17 via X1; thioether I:N-I:15, II:N-II:15), the “pERK (aLISA) Assay Results” value in assay [1] was “A (The peptide with 50% or more activity when 1 nM of the peptide was added was evaluated as A)”. Further, the “NFAT Assay Results” value in assay [2] was “A (The peptide with 50% or more activity when 1 nM of the peptide was added was evaluated as A)”. This molecule showed an Emax in assay [3] of 99%.
In the case of {CH2CO}-FEPY[3Pal]WPTYSE[3Pal]VECG (thioether N-15; also: homodimer via linker No. 7 (K-cPEG13c-K) at Gly16) [peptide complex, dimer structure No. 56 (peptide sequence No. 17 + linker structure No. 7)], the koff in assay [4] is < 1e-05 s⁻¹. In assay [5], the “PathHunter EC50” value was determined as 0.358 nM and the “PathHunter Emax (BDNF maximum = 100%)” value is 93%.
Taken in the same sequence, the figures for {CH2CO}-FSPY[3Pal]WPTYSE[3Pal]VECG (thioether N-15; also: homodimer via linker No. 7 (K-cPEG13c-K) at Gly16) [peptide complex, dimer structure No. 48 (peptide sequence No. 15 + linker structure No. 7)] were < 1e-05 s⁻¹, 0.421 nM and 102%.

The values are drawn from patent publication US20250282820A1, “PEPTIDE COMPLEX HAVING TRKB BINDING ACTIVITY” (PEPTIDREAM INC, priority 2022, published 2025).
